Test results: patent US7319109B2, “Farnesoid X receptor agonists” (Smith Kline Beecham Corporation, priority 2002, dated 2008)

Target: T1, Human FXRα Ligand Binding Domain (FXRα LBD) (Homo sapiens, UniProt Q96RI1)
T1 construct: polyhistidine (N); made in house; host or cells: E. coli BL21 (DE3), pRSET-A vector
T1 sequence (Q96RI1 222-472 isoform Q96RI1-2): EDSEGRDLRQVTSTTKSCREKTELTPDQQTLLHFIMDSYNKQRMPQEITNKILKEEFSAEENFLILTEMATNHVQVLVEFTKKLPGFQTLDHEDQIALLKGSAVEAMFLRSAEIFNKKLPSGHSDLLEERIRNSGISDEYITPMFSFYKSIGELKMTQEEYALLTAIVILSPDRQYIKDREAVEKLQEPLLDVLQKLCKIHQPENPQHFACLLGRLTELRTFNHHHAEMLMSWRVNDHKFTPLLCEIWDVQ
Test: FXR Affinity Binding Assay: ligand mediated cofactor peptide (SRC-1 LCD2, 676-700) interaction, time resolved fluorescence
Settings: FXRα LBD-APC / europium labeled SRC-1 peptide, TRF signal, at least 2 hours at room temperature; read-out: Activity (pEC50) (converted)

EC50 [nM]	Compound
102 to 1000	CC(C)c1onc(-c2c(Cl)cccc2Cl)c1COc1ccc(CSc2ccc(C(=O)O)cc2)c(Cl)c1 [Example 82, 4-[(2-Chloro-{[3-(2,6-dichlorophenyl)-5-isopropylisoxazol-4-yl]methoxy}benzyl)thio]-benzoic acid]
102 to 1000	Cc1cc(OCc2c(-c3ccccc3OC(F)(F)F)noc2C(C)C)ccc1NS(=O)(=O)c1cccc(C(=O)O)c1 [Example 69, 3-({[4-({5-Isopropyl-3-[2-(trifluoromethoxy)phenyl]isoxazol-4-yl}methoxy)-2-methyl-phenyl]amino}sulfonyl)benzoic acid]
< 100	CC(C)c1onc(-c2c(Cl)cccc2Cl)c1COc1ccc(CSc2cccc(C(=O)O)c2)c(Cl)c1 [Example 78, 3-[(2-Chloro-4-{[3-(2,6-dichlorophenyl)-5-isopropylisoxazol-4-yl]methoxy}benzyl)thio]-benzoic acid]
102 to 1000	CC(C)c1onc(-c2ccccc2OC(F)(F)F)c1COc1ccc(CSc2cccc(C(=O)O)c2)c(Cl)c1 [Example 90, 3-{[2-Chloro-4-({5-isopropyl-3-[2-(trifluoromethoxy)phenyl]isoxazol-4-yl}methoxy)-benzyl]thio}benzoic acid]
1020 to 10000	COC(=O)c1ccc(S(=O)(=O)Nc2ccc(OCc3c(-c4c(Cl)cccc4Cl)noc3C(C)C)cc2)cc1 [Example 55, Methyl 4-{[(4-{[3-(2,6-dichlorophenyl)-5-isopropylisoxazol-4-yl]methoxy}phenyl)-amino]sulfonyl}benzoate]
< 100	CCN(c1ccc(OCc2c(-c3c(Cl)cccc3Cl)noc2C(C)C)cc1Cl)S(=O)(=O)c1ccc(C(=O)O)cc1 [Example 65, 4-{[(2-Chloro-4-{[3-(2,6-dichlorophenyl)-5-isopropylisoxazol-4-yl]methoxy}phenyl)-(ethyl)amino]sulfonyl}benzoic acid]
102 to 1000	Cc1cc(OCc2c(-c3c(Cl)cccc3Cl)noc2C(C)C)ccc1NS(=O)(=O)c1ccc(C(=O)O)cc1 [Example 57, 4-{[(4-{[3-(2,6-Dichlorophenyl)-5-isopropylisoxazol-4-yl]methoxy}-2-methylphenyl)-amino]sulfonyl}benzoic acid]
102 to 1000	CC(C)c1onc(-c2ccccc2OC(F)(F)F)c1COc1ccc(COc2cccc(C(=O)O)c2)c(Cl)c1 [Example 85, 3-{[2-Chloro-4-({5-isopropyl-3-[2-(trifluoromethoxy)phenyl]isoxazol-4-yl}methoxy)-benzyl]oxy}benzoic acid]
102 to 1000	Cc1cc(OCc2c(-c3c(Cl)cccc3Cl)noc2C(C)C)ccc1N(C)S(=O)(=O)c1ccc(C(=O)O)cc1 [Example 63, 4-{[(4-{[3-(2,6-Dichlorophenyl)-5-isopropylisoxazol-4-yl]methoxy}-2-methylphenyl)-(methyl)amino]sulfonyl}benzoic acid]
102 to 1000	COC(=O)c1cccc(SCc2ccc(OCc3c(-c4ccccc4OC(F)(F)F)noc3C(C)C)cc2Cl)c1 [Example 88, Methyl 3-{[2-chloro-4-({5-isopropyl-3-[2-(trifluoro-methoxy)phenyl]isoxazol-4-yl}methoxy)benzyl]thio}benzoate]
102 to 1000	COC(=O)c1cccc(COc2ccc(OCc3c(-c4c(Cl)cccc4Cl)noc3C(C)C)cc2C)c1 [Example 100, Methyl 3-[(4-{[3-(2,6-dichlorophenyl)-5-isopropylisoxazol-4-yl]methoxy}-2-methyl-phenoxy)methyl]benzoate]
102 to 1000	COC(=O)c1cccc(OCc2ccc(OCc3c(-c4c(Cl)cccc4Cl)noc3C(C)C)cc2Cl)c1 [Example 76, Methyl 3-[(2-chloro-4-{[3-(2,6-dichlorophenyl)-5-isopropylisoxazol-4-yl]methoxy}benzyl)-oxy]benzoate]
1020 to 10000	CCN(c1ccc(OCc2c(-c3c(Cl)cccc3Cl)noc2C(C)C)cc1)S(=O)(=O)c1ccc(C(=O)OC)cc1 [Example 61, Methyl 4-{[(4-{[3-(2,6-dichlorophenyl)-5-isopropylisoxazol-4-yl]methoxy}phenyl)-(ethyl)amino]sulfonyl}benzoate]
102 to 1000	COC(=O)c1ccc(OCc2ccc(OCc3c(-c4c(Cl)cccc4Cl)noc3C(C)C)cc2Cl)cc1 [Example 75, Methyl 4-[(2-chloro-4-{[3-(2,6-dichlorophenyl)-5-isopropylisoxazol-4-yl]methoxy}benzyl)oxy]benzoate]
102 to 1000	CC(C)c1onc(-c2ccccc2OC(F)(F)F)c1COc1ccc(CNc2cccc(C(=O)O)c2)c(Cl)c1 [Example 96, 3-{[2-Chloro-4-({5-isopropyl-3-[2-(trifluoromethoxy)phenyl]-4-isoxazolyl}methoxy)benzyl]amino}benzoic acid]
102 to 1000	Cc1cc(OCc2c(-c3ccccc3OC(F)(F)F)noc2C(C)C)ccc1COc1cccc(C(=O)O)c1 [Example 86, 3-{[4-({5-Isopropyl-3-[2-(trifluoromethoxy)phenyl]isoxazol-4-yl}methoxy)-2-methyl-benzyl]oxy}benzoic acid]

Further lines, the molecule ahead of its results:

Compound	EC50 [nM]
Cc1cc(OCc2c(-c3c(Cl)cccc3Cl)noc2C(C)C)ccc1N(C)S(=O)(=O)c1cccc(C(=O)O)c1 [Example 48, 3-{[(4-{[3-(2,6-Dichlorophenyl)-5-isopropylisoxazol-4-yl]methoxy}-2-methylphenyl)-(methyl)amino]sulfonyl}benzoic acid]	< 100
CCN(c1ccc(OCc2c(-c3c(Cl)cccc3Cl)noc2C(C)C)cc1)S(=O)(=O)c1cccc(C(=O)O)c1 [Example 52, 3-{[(4-{[3-(2,6-Dichlorophenyl)-5-isopropylisoxazol-4-yl]methoxy}phenyl)(ethyl)-amino]sulfonyl}benzoic acid]	102 to 1000
CCN(c1ccc(OCc2c(-c3c(Cl)cccc3Cl)noc2C(C)C)cc1C)S(=O)(=O)c1cccc(C(=O)OC)c1 [Example 44, Methyl 3-{[(4-{[3-(2,6-dichlorophenyl)-5-isopropylisoxazol-4-yl]methoxy}-2-methyl-phenyl)(ethyl)amino]sulfonyl}benzoate]	102 to 1000
COC(=O)c1cccc(C(=O)Nc2ccc(OCc3c(-c4c(Cl)cccc4Cl)noc3C(C)C)cc2Cl)c1 [Example 24, Methyl 3-[(2-chloro-4-{[3-(2,6-dichlorophenyl)-5-isopropyl-4-isoxazolyl]methoxy}anilino)carbonyl]benzoate]	102 to 1000
Cc1cc(OCc2c(-c3c(Cl)cccc3Cl)noc2C(C)C)ccc1N(C)Cc1ccc(C(=O)O)o1 [Example 4, 5-[(4-{[3-(2,6-Dichlorophenyl)-5-isopropyl-4-isoxazolyl]methoxy}-2-dimethylanilino)methyl]-2-furoic acid]	102 to 1000
COC(=O)c1ccc(S(=O)(=O)Nc2ccc(OCc3c(-c4c(Cl)cccc4Cl)noc3C(C)C)cc2Cl)cc1 [Example 53, Methyl 4-{[(2-chloro-4-{[3-(2,6-dichlorophenyl)-5-isopropylisoxazol-4-yl]methoxy}-phenyl)amino]sulfonyl}benzoate]	102 to 1000
Cc1cc(OCc2c(-c3ccccc3OC(F)(F)F)noc2C(C)C)ccc1N(C)Cc1ccc(C(=O)O)o1 [Example 18, 5-{[4-({5-Isopropyl-3-[2-(trifluoromethoxy)phenyl]-4-isoxazolyl}methoxy)-2-dimethylanilino]methyl}-2-furoic acid]	< 100
Cc1cc(OCc2c(Cc3c(Cl)cccc3Cl)noc2C2CC2)ccc1N(C)Cc1cccc(C(=O)O)c1 [Example 17, 3-[(4-{[5-Cyclopropyl-3-(2,6-dichlorobenzyl)-4-isoxazolyl]methoxy}-2-dimethylanilino)methyl]benzoic acid]	102 to 1000
CC(C)c1onc(-c2c(Cl)cccc2Cl)c1COc1ccc(NC(=O)c2ccc(C(=O)O)cc2)c(Cl)c1 [Example 23, 4-{[(2-Chloro-4-{[3-(2,6-dichlorophenyl)-5-isopropylisoxazol-4-yl]methoxy}phenyl)amino]carbonyl}benzoic acid]	102 to 1000
Cc1cc(OCc2c(-c3c(Cl)cccc3Cl)noc2C(C)C)ccc1N(C)Cc1cccc(CO)c1 [Example 11, {3-[(4-{[3-(2,6-Dichlorophenyl)-5-isopropyl-4-isoxazolyl]methoxy}-2-dimethylanilino)methyl]phenyl}methanol]	< 100
COC(=O)c1cccc(S(=O)(=O)N(C)c2ccc(OCc3c(-c4c(Cl)cccc4Cl)noc3C(C)C)cc2Cl)c1 [Example 41, Methyl 3-{[(2-chloro-4-{[3-(2,6-dichlorophenyl)-5-isopropylisoxazol-4-yl]methoxy}-phenyl)(methyl)amino]sulfonyl}benzoate]	102 to 1000
CC(C)c1onc(-c2c(Cl)cccc2Cl)c1COc1ccc(NS(=O)(=O)c2cccc(C(=O)O)c2)c(Cl)c1 [Example 46, 3-{[(2-Chloro-4-{[3-(2,6-dichlorophenyl)-5-isopropylisoxazol-4-yl]methoxy}phenyl)amino]sulfonyl}benzoic acid]	102 to 1000
CCN(c1ccc(OCc2c(-c3c(Cl)cccc3Cl)noc2C(C)C)cc1)S(=O)(=O)c1cccc(C(=O)OC)c1 [Example 45, Methyl 3-{[(4-{[3-(2,6-dichlorophenyl)-5-isopropylisoxazol-4-yl]methoxy}phenyl)(ethyl)-amino]sulfonyl}benzoate]	1020 to 10000
CC(C)c1onc(-c2c(Cl)cccc2Cl)c1COc1ccc(NCc2cccc(C(=O)O)c2)c(Cl)c1 [Example 3, 3-{[(2-Chloro-4-{[3-(2,6-dichlorophenyl)-5-isopropylisoxazol-4-yl]methoxy}phenyl)amino]methyl}benzoic acid]	102 to 1000
COC(=O)c1ccc(CN(C)c2ccc(OCc3c(-c4ccccc4OC(F)(F)F)noc3C(C)C)cc2C)cc1 [Example 22, Methyl 4-{[4-({5-isopropyl-3-[2-(trifluoromethoxy)phenyl]-4-isoxazolyl}methoxy)-2-dimethylanilino]methyl}benzoate]	102 to 1000
